{"source": "ChEMBL document CHEMBL1158487", "about": "“Small molecule chloropyramine hydrochloride (C4) targets the binding site of focal adhesion kinase and vascular endothelial growth factor receptor 3 and suppresses breast cancer growth in vivo” (J Med Chem, 2009)", "system": "BT-474", "assay": "Antitumor activity against human BT474 cells xenografted in nude-foxn1nu mouse assessed as reduction in tumor growth at 3 mg/kg after 14 days relative to control", "format": "functional", "parameters": "scale not given: the % may be the effect or the level left", "data": [{"smiles": "COc1cccc2c1C(=O)c1c(O)c3c(c(O)c1C2=O)C[C@@](O)(C(=O)CO)C[C@@H]3O[C@H]1C[C@H](N)[C@H](O)[C@H](C)O1", "note": "[DOXORUBICIN]", "values": [{"measurement": "Activity", "value": 60, "unit": "%"}]}]}
